One may read the IC50 as the concentration that inhibits the measured activity by half.

*1 amine or outer side, *2 acyl side, *3 side chain or, on linkers, in order; H or OH if unused. Where a SMILES comes first, the peptide text is derived from it. [ ]: non-standard residue; d: D form. The star is where a group is joined. Hyp = O=C(O)[C@@H]1C[C@@H](O)CN1; βNA = c1ccc2cc(N*)ccc2c1; 2Abz = Nc1ccccc1C(=O)O; CO = O=C([*:1])[*:2]; Bn = c1ccc(C*)cc1

The source of these data is patent US5340801A, “Compounds having cholecystokinin and gastrin antagonistic properties” (Rhone-Poulenc Rorer Pharmaceuticals Inc., priority 1991, dated 1994).

Test [1] has as its target T1, gastrin receptor (Cavia porcellus, UniProt H0VZC5).
T1 construct: The fundic mucosa is gently scraped off the submucosa; from tissue; host or cells: guinea pig (Hartley) fundic mucosa gastric glands, collagenase-dispersed
T1 sequence (H0VZC5 1-426): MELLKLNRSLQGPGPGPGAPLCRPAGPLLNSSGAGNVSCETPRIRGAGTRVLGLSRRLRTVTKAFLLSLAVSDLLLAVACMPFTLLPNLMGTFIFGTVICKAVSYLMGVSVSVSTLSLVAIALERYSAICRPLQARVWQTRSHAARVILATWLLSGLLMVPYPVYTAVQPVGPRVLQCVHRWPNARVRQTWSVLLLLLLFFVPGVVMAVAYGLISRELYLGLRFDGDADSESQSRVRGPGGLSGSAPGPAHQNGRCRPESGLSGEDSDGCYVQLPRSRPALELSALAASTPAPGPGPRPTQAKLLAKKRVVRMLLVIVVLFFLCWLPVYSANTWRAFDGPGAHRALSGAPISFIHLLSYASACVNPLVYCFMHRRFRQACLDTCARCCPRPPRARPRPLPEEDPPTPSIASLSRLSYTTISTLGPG
In words: Gastrin Receptor Binding Assay. Particulars: guinea pig gastric glands, displacement of 125I-(Leu-15)-Gastrin, 25° C., 30 minutes; read-out: IC50 Gastrin (In Vitro Binding Data). The source says: (§1) The effectiveness of the compounds of this invention as gastrin or cholecystokinin antagonists may be determined by the following pharmacologic tests which evaluate the gastrin and cholecystokinin antagonist activity of said compounds. The CCK-A Receptor Binding Assay and the Gastrin Receptor Binding Assay are standard test procedures. The CCK-A Receptor Binding Assay is essentially that of Chang, et al., "Characterization of the Binding of [^3 H]-(±)-L-364,718: A New Potent, Nonpeptide Cholecystokinin Antagonist Radioligand Selective for Peripheral Receptors", Molecular Pharmacology, 30: 212-217 (1986). The Gastrin Receptor Binding Assay is essentially that of Chang, et al., "Characterization of [^3 H]Pentagastrin Binding in Guinea Pig Gastric Glands - An Alternative Convenient Ligand for Receptor Binding Assay", Biochemical and Biophysical Research Communications, 134 (2): 895-899 (1986).
Gastrin Receptor Binding Assay
Phosphate Buffered Saline (PBS): 8.743 g NaCl, 523 mg K2 HPO4 and 76.8 mg NaH2 PO4 is dissolved in 900 ml of deionized water, the pH of the solution is adjusted to 7.3 with 5N NaOH, then Q.S. to 1 L.
Buffer A: Powdered Basal Medium Eagle (BME) containing Earle's Salts, L-glutamine and 25 mM HEPES without bicarbonate (Sigma Cat. number B 4391) sufficient to make 3 liters is stirred into 2.7 L of deionized water, […] sodium bicarbonate is added and the mixture stirred to give dissolution. The solution is then equilibrated with 95% O2 /5% CO2 gas followed by titration to a pH of 7.4 with NaOH, then Q.S. to 3 L.
Buffer B: 18.75 mg of collagenase A and 25 mg of pH neutralized BSA is dissolved in 25 ml of Buffer A.
Buffer C: 0.3 g of BSA is dissolved in 300 ml of Buffer A.
Buffer D: 6.25 mg Bacitracin is dissolved in 25 ml of Buffer A.
A guinea pig (Hartley Strain) weighing 150-200 grams, is sacrificed by CO2 asphyxiation and the stomach immediately excised, cut along the greater curvature, cleaned out and immediately immersed in a beaker containing cold PBS, pH 7.3, to insure thorough cleaning. The fundic mucosa is gently scraped off the submucosa and added to a preweighed 50 ml plastic centrifuge tube containing 30 ml of cold Buffer A. The weight of the plastic centrifuge tube containing the buffer is then subtracted from the combined weight of the mucosa and the buffer-containing tube to give the weight of the mucosa. The weight of the mucosa thus determined is recorded for later calculations. The mucosa is then washed twice in Buffer A. After the final wash, the tissue is minced and is placed in a 100-ml glass beaker containing about 1.0 ml of Buffer A, and washed twice again by repeated centrifugation at 50Xg for 5 minutes each and aspiration of supernatant. The washed tissue fragments are then added to a glass Erlenmeyer flask containing 25 ml of Buffer B and incubated in a Dubnoff shaking water bath at 37° C. for 30 minutes in a 95% O2 /5% CO2 atmosphere. After the incubation, the digested tissue fragments in the Collegenase-buffer solution are triturated, filtered through a 200-micron nylon mesh and centrifuged at 50Xg for 5 minutes. The supernatant is aspirated and discarded, the tissue washed 2X in Buffer C, resuspended in same buffer, incubated in a 37° C water bath in an atmosphere of 95% O2 /5% CO2 for 5 minutes, and centrifuged. The pelleted glands are suspended in Buffer D at a desired concentration of 2×10^5 glands/ml to use in the receptor binding assay.
Assay Buffer: Buffer A as above
^125 l-(Leu-15)-Gastrin: 100 microcurie dissolved in 2.0 ml of Buffer A to make 50 microcurie/ml; stored in 50 μl aliquots under Argon at -70° C.
^125 I-(15-methionine)-Human Gastrin: 50 microcurie/ml in deionized water, stored in 50 μl aliquots as above.
(Leu 15)-Gastrin 17:5.2 mg of (Leu-15)- Gastrin is dissolved in 10 ml of Buffer A and stored in 30 μl aliquots. At the time of assay a 1:10 dilution is made and 10 μl/assay tube is used. […]
Background: Displacement assays read how much labelled ligand stays bound in the presence of the test substance.

Test [2] addresses T2, CCK-A receptor (Rattus norvegicus, UniProt P30551).
T2 construct: from tissue; host or cells: rat (Sprague-Dawley) pancreas membrane homogenate
T2 sequence (P30551 1-444): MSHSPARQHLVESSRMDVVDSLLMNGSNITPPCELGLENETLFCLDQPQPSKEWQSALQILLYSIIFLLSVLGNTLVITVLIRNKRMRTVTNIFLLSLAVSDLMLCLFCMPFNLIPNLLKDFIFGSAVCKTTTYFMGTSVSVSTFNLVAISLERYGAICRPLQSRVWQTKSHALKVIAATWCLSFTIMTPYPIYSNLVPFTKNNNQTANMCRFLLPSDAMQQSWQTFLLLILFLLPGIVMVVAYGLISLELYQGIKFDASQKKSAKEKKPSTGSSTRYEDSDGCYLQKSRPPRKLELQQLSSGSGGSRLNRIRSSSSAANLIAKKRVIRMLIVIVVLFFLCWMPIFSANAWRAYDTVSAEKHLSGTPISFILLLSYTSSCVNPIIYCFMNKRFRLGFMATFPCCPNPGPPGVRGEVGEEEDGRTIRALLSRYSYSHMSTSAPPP
In words: CCK-A Receptor Binding Assay. Particulars: rat pancreas membranes, displacement of 3H-L-364,718 (0.2 nM), 37° C., 30 minutes; read-out: IC50 CCK-A (In Vitro Binding Data).
From the text: as §1
CCK-A Receptor Binding Assay
Wash Buffer (for use with Brandel Cell Harvester):
30 liters (L) of 50 mM Tris, pH 7.7: Dissolve 1 81.7 g Tris base in 4 L deionized water at room temperature. Adjust pH to 7.7 with 6N HCl and Q.S. to 30 L.
50 mM Tris-Cl, 5 mM MgCl2, 5 mM dithiothreitol, 0.14 mg/ml bacitracin, and 2 mg/ml bovine serum albumin (BSA).
1 liter of 5X stock buffer:
30.28 g Tris base per 800 ml deionized water, 5.08 g MgCl2 ·6H20, pH to 7.7 at room temperature with 6N HCl and Q.S. to 1 liter, store at 4° C.
250 ml working buffer (kept on ice):
50 ml of 5X stock buffer 0.1928 g dithiothreitol (5 mM), 35 mg bacitracin (0.14 mg/ml), and 0.5 g BSA (2mg/ml).
Unlabeled L-364,718 (nonpeptide ligand):
Unlabeled L-364,718 (N-(2,3-dihydro-1-methyl-2-oxo-5-phenyl-1H-1,4-benzodiazepin-3-yl)-1H-indole-2-carboxamide) (300 nM final concentration) is used to define nonspecific binding. A […] solution is made in absolute ethanol and stored at -70° C. Aliquots are diluted 100-fold in the assay.
A Sprague-Dawley rat is sacrificed by asphyxiation with carbon dioxide and the pancreas removed. The tissue is immersed in cold wash buffer and carefully trimmed of fat, connective tissue, blood vessels, blotted and weighed. The tissue is homogenized in a Sorvall SS-34 centrifuge tube in 50 volumes of wash buffer using a Polytron at setting 7 for 15 seconds. The tissue is centrifuged (Sorvall SS-34) at 19,000 rpm for 10 min. The supernatant is poured off and the pellet resuspended in sufficient buffer to obtain a concentration of 40 mg tissue wet weight/mi. Separate aliquots (2.3ml) are placed in each of 8 centrifuge tubes and centrifuged as before. The supernatants are poured off and the pellets stored at -70° C. Stored pellets are sufficient for the assay of 160 tubes and are stable for 1-2 months.
During the assay the stored membranes are resuspended in 40 ml of assay buffer by scraping the pellet off the wall of the centrifuge tube and washing it into a teflon-glass homogenizer. Membranes are resuspended by 5 passes with the teflon pestle and the membranes stored on ice until ready for use.
Preparation of Compounds:
Compounds of the present invention to be tested are prepared in DMSO (dimethyl sulfoxide) or in assay buffer. The majority of compounds of the present invention active as CCK antagonists generally require DMSO for complete solubility. Approximately 2-3 mg of compound is weighed directly into a 13×100 mm test tube and sufficient DMSO added to obtain a working stock solution at a concentration 100 fold greater than the highest concentration being tested in the assay. A total of 10 μl of each concentration of drug is added into a final volume of 1 ml to yield a 100 fold dilution of the working stock solution. Control binding tubes ("totals and nonspecifics") are also treated with 10 μl DMSO.
^3 H-L-364,718 is obtained from New England Nuclear (Cat. #971) and is used as supplied. […]

`Cc1cccc(NC(=O)N2C[C@H](OCc3ccccc3)C[C@H]2C(=O)N2CCc3c([nH]c4ccccc34)C2)c1` [Example 1, 2-[(N-(3-methyl)phenylcarbamoyl-4(R)-benzyloxy)-L-prolyl]-1,2,3,4-tetrahydro-9H-pyrido[3,4-b]indole]: the IC50 in test [1] is more than 300 µM; in test [2], 9 µM. Regarding `COc1ccc(NC(=O)N2C[C@H](OCc3ccccc3)C[C@H]2C(=O)N2CCc3c([nH]c4ccccc34)C2)cc1` [Example 2, 2-[(N-(4-methoxy)phenylcarbamoyl-4(R)-benzyloxy)-L-prolyl]-1,2,3,4-tetrahydro-9H-pyrido[3,4-b]indole], the IC50 came to 120 µM in test [1] and 15 µM in test [2]. As to `Cc1cccc(NC(=O)N2c3ccccc3C[C@H]2C(=O)N2CCc3c([nH]c4ccccc34)C2)c1` [Example 3, 2-[(N-(3-methyl)phenylcarbamoylindolin-2(S)-yl)carbonyl]-1,2,3,4-tetrahydro-9H-pyrido[3,4-b]indole], the values for the IC50 in test [1] and in test [2] were more than 300 µM and 30 µM, respectively. The matching figures for `O=C([C@H]1CCCN1C(=O)Nc1ccc2ccccc2c1)N1CCc2c([nH]c3ccccc23)C1` [Example 4, 2-(N-naphth-2-ylcarbamoyl-D-prolyl)-1,2,3,4-tetrahydro-9H-pyrido[3,4-b]indole]: 10.3 µM and 7.3 µM. For the compound `Cc1cccc(NC(=O)N2CCC[C@@H]2C(=O)N2CCc3c([nH]c4ccccc34)C2)c1` [Example 5, 2-[N-(3-methyl)phenylcarbamoyl-D-prolyl]-1,2,3,4-tetrahydro-9H-pyrido[3,4-b]indole], the IC50 is more than 30 µM in test [1] and 37 µM in test [2]. The matching figures for `Cc1cccc(NC(=O)N2CCC[C@H]2C(=O)N2CCc3c([nH]c4ccccc34)C2)c1` [Example 6, 2-[N-(3-methyl)phenylcarbamoyl-L-prolyl]-1,2,3,4-tetrahydro-9H-pyrido[3,4-b]indole]: more than 30 µM and 37 µM.

For `Cc1cccc(NC(=O)N2C[C@H](OCc3ccccc3)C[C@H]2C(=O)N[C@H](CC(C)C)C(=O)N[C@H](CC(=O)O)C(N)=O)c1` [Example 7], the values for the IC50 in test [1] and in test [2] were 2.6 µM and 3 µM, respectively. Take `O=C(O)c1ccccc1NC(=O)[C@@H]1CCCN1C(=O)[C@@H]1C[C@@H](OCc2ccccc2)CN1C(=O)Nc1ccc2ccccc2c1` [Example 9, 2-[(N-(4(R)-benzyloxy-N-naphth-2-ylcarbamoyl-L-prolyl)-L-prolyl)amino]benzoic acid] ({βNA-CO}-[Hyp](Bn)-Pro-[2Abz]-OH): the IC50 in test [1] came to 0.13 µM. Turning to `O=C(O)c1ccccc1NC(=O)[C@@H]1CCCN1C(=O)[C@@H]1C[C@@H](OCc2ccccc2)CN1C(=O)Nc1cccc2ccccc12` [Example 11, 2-[(N-(4(R)benzyloxy-N-naphth-1-ylcarbamoyl-L-prolyl)-L-prolyl)amino]benzoic acid], the IC50 in test [1] amounted to 0.2 µM.
